Data taken from patent US20260091026A1, “METHODS OF TREATING INFLAMMATORY DISEASES” (INTERLINE THERAPEUTICS, INC., priority 2023, published 2026).

What was measured:
[1] = test system: THP1-Dual cells, NF-κB pathway (SEAP); experiment: THP-1 Dual cell SEAP assay (L18-MDP stimulated); type: cell-based; settings: Homo sapiens, 10 ng/mL L18-MDP, 20-24 h, SEAP readout, read-out: IFNγ THP1 IC50
Method: THP1-Dual™ cells (InvivoGen Cat #thpd-nfis) allow simultaneous assessment of the NF-κB pathway, by monitoring the activity of secreted embryonic alkaline phosphatase (SEAP) as well as the IRF pathway, by assessing the activity of a secreted luciferase (Lucia). Cells were cultured according to manufacturers' recommendations. For the assay, cell concentration was adjusted to 7.14×10^5 cells/mL in assay media (RPMI 1640, 2 mM L-Glutamine, 25 mM HEPES, 10% fetal bovine serum (heat-inactivated for 30 min at 56° C.), Pen-Strep (100 U/mL)) and 35 μL of cell suspension (˜25,000 cells) per well were added to a flat bottom 384-well plate (white opaque). Plate was centrifuged at 300 g for 2 min, compounds were added in serial dilution series according to the plate layout (volumes ˜500 nL-0.0152 nL) and plate was incubated at 37° C. in 5% CO2 for 30 min. Using assay media, a L18-MDP stock solution, that results in a final concentration of 10 ng/mL L18-MDP in each well when adding 15 μL to each well, was prepared. 15 μL of L18-MDP stock solution was added to each well, while 15 μL of assay media was added to the negative control wells. Plates were subsequently incubated at 37° C. in 5% CO2 overnight (20-24 h).
For the SEAP assay: without disturbing the cells at the bottom of the well, 15 μL supernatant was transferred to a clear 384-well flat bottom plate and 35 μL QUANTI-Blue Solution per well was added. Following a 2 h incubation at 37° C., the optical density (OD) was measured at 620-655 nm using a microplate reader (PheraStar FS microplate reader with protocol for OD 620-655 nm).
Values of media-only wells were subtracted and % inhibition for each compound concentration relative to the DMSO/L18-MDP-treated controls was calculated. Inhibition values+/−SD were fitted by non-linear regression using Prism software (GraphPad PRISM Software) to calculate IC50 values.

RIPK2 (KD)/XIAP (BIR2) = molecular target: T1, RIPK2 (KD)/XIAP (BIR2) (Homo sapiens, UniProt O43353); experiment: RIPK2-XIAP binding competition PPI assay (TR-FRET); settings: for Emax: 50 nM of GSK583 = -100% activity, read-out: PPI Amax; for IC50: GST-RIPK2 / His-XIAP (BIR2)-avi, 120 min at 23° C.
T1 construct: made in house; host or cells: baculovirus-infected Sf9 cells
Description: The ability of selected compounds of Formula (I) to inhibit the binding of an His-XIAP (BIR2)-avi fusion protein to a GST-RIPK2 fusion protein was quantified employing the TR-FRET-based competition assay as described in the following paragraphs.
Recombinant fusion protein of N-terminal Glutathione-S-Transferase (GST) and a fragment of human RIPK2 (amino acids 1-310 of accession number 043353), expressed in baculovirus infected Sf9 cells, purified via glutathione affinity chromatography, was used as GST-RIPK2 fusion protein. Recombinant fusion protein of N-terminal 6xHistidine (His), a fragment of human XIAP (amino acids 152-231 of accession number P98170), and C-terminal avi tag, expressed in baculovirus infected Sf9 cells, purified via Nickel NTA affinity chromatography, was used as the His-XIAP (BIR2)-avi fusion protein.
For the assay, a working solution of 1 nM GST-RIPK2, 25 nM His-XIAP (BIR2)-avi, 6 nM Anti-His-XL665 […] (Revvity Catalogue No. 61HISXLB), and 0.5 nM Anti-GST-Tb(Revvity Catalogue No. 61GSTTLB) in 25 mM Tris-HCl 7.5, 0.5 mM ethylene glycol-bis(2-aminoethylether)-N,N,N′,N′-tetraacetic acid (EGTA), 10 mM magnesium chloride (MgCl2), 2.5 mM dithiothreitol (DTT), 0.01% (w/v) bovine serum albumin (BSA), 0.005% (w/v) Pluronic F-127 (Sigma), 0.5 mM sodium ortho-vanadate, 5 mM-Glycerophosphate disodium salt hydrate (BGP) was prepared. 50 nL of a 100-fold concentrated solution of each test compound in DMSO was dispensed via acoustic dispensing into a white low volume 384-well microtiter plate (Perkin Elmer Catalogue No. 6008280). Subsequently, 5 μL of the assay working solution were added.
The resulting mixture was incubated 120 min at 23° C. Subsequently, the amount of complex formed by the GST-RIPK2, XIAP (BIR2)-avi, Anti-His-XL665, and Anti-GST-Tb was evaluated by measurement of the resonance energy transfer from the Tb-cryptate to the XL665. Therefore, the fluorescence emissions at 520 nm and 665 nm after excitation at 337 nm were measured in a TR-FRET reader, e.g. a Pherastar FS(BMG Labtechnologies, Offenburg, Germany) or an Envision (PerkinElmer). The ratio of the emissions at 665 nm and at 520 nm was taken as the measure of the amount of the complex. The data were normalized (assay reaction without inhibitor=0% activity, 50 nM of GSK583=−100% activity).

T1 sequence (O43353 1-310): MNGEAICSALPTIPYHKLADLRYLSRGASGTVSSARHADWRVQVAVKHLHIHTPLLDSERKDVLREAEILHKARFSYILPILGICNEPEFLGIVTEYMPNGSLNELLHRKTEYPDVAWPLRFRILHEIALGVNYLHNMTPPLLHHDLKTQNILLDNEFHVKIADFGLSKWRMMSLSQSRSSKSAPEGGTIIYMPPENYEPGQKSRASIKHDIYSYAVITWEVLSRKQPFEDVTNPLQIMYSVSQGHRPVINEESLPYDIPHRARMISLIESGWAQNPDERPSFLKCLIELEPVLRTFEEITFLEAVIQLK

Structure (SMILES)	IC50 [1] [nM]	Emax (RIPK2 (KD)/XIAP (BIR2)) [%]	IC50 (RIPK2 (KD)/XIAP (BIR2)) [nM]
COc1cc2ncc(-c3cc(C(=O)NCc4ccccc4CO)n(C)n3)n2cc1S(=O)(=O)C(C)(C)C [Example 74, 3-(6-(tert-butylsulfonyl)-7-methoxyimidazo[1,2-a]pyridin-3-yl)-N-(2-(hydroxymethyl)benzyl)-1-methyl-1H-pyrazole-5-carboxamide]	500 to 2500	≥ 80	10 to 100
COc1ccccc1[C@@H](C)NC(=O)c1cc(-c2cnc3cc(OCCO)c(S(=O)(=O)C(C)(C)C)cn23)nn1C [Example 75, (R)-3-(6-(tert-butylsulfonyl)-7-(2-hydroxyethoxy)imidazo[1,2-a]pyridin-3-yl)-N-(1-(2-methoxyphenyl)ethyl)-1-methyl-1H-pyrazole-5-carboxamide]	500 to 2500	≥ 80	10 to 100
C[C@@H](NC(=O)c1cc(-c2cnc3cc(OCCO)c(S(=O)(=O)C(C)(C)C)cn23)nn1C1COC1)c1ncccc1F [Example 139, (R)-3-(6-(tert-butylsulfonyl)-7-(2-hydroxyethoxy)imidazo[1,2-a]pyridin-3-yl)-N-(1-(3-fluoropyridin-2-yl)ethyl)-1-(oxetan-3-yl)-1H-pyrazole-5-carboxamide]	100 to 500	≥ 80	10 to 100
C[C@@H](NC(=O)c1cc(-c2cnc3cc(OCCO)c(S(=O)(=O)C(C)(C)C)cn23)nn1C)c1ncccn1 [Example 108, (R)-3-(6-(tert-butylsulfonyl)-7-(2-hydroxyethoxy)imidazo[1,2-a]pyridin-3-yl)-1-methyl-N-(1-(pyrimidin-2-yl)ethyl)-1H-pyrazole-5-carboxamide]	100 to 500	≥ 80	10 to 100
COc1cc2ncc(-c3cc(C(=O)NCc4cnn5ccccc45)n(C)n3)n2cc1S(=O)(=O)C(C)(C)C [Example 17, 3-(6-(tert-butylsulfonyl)-7-methoxyimidazo[1,2-a]pyridin-3-yl)-1-methyl-N-(pyrazolo[1,5-a]pyridin-3-ylmethyl)-1H-pyrazole-5-carboxamide]	> 2500	55 to 80	> 1000
C[C@@H](NC(=O)c1cc(-c2cnc3cc(OCCO)c(S(=O)(=O)C(C)(C)C)cn23)nn1C)c1ncccc1Cl [Example 111, (R)-3-(6-(tert-butylsulfonyl)-7-(2-hydroxyethoxy)imidazo[1,2-a]pyridin-3-yl)-N-(1-(3-chloropyridin-2-yl)ethyl)-1-methyl-1H-pyrazole-5-carboxamide]	100 to 500	≥ 80	10 to 100
COc1cc2ncc(-c3cc(C(=O)NCc4ccnn4C)n(C)n3)n2cc1S(=O)(=O)C(C)(C)C [Example 70, 3-(6-(tert-butylsulfonyl)-7-methoxyimidazo[1,2-a]pyridin-3-yl)-1-methyl-N-((1-methyl-1H-pyrazol-5-yl)methyl)-1H-pyrazole-5-carboxamide]	> 2500	30 to 55	> 1000
COCCn1nc(-c2cnc3cc(OC)c(S(=O)(=O)C(C)(C)C)cn23)cc1C(=O)N[C@H](C)c1ccccn1 [Example 105, (R)-3-(6-(tert-butylsulfonyl)-7-methoxyimidazo[1,2-a]pyridin-3-yl)-1-(2-methoxyethyl)-N-(1-(pyridin-2-yl)ethyl)-1H-pyrazole-5-carboxamide]	500 to 2500	≥ 80	10 to 100
COc1cc2ncc(-c3cc(C(=O)NCc4cc(C)n[nH]4)n(C)n3)n2cc1S(=O)(=O)C(C)(C)C [Example 45, 3-(6-(tert-butylsulfonyl)-7-methoxyimidazo[1,2-a]pyridin-3-yl)-1-methyl-N-((3-methyl-1H-pyrazol-5-yl)methyl)-1H-pyrazole-5-carboxamide]	> 2500	≥ 80	10 to 100
C[C@@H](CO)COc1cc2ncc(-c3cc(NC(=O)Cc4ccccc4Cl)n(C)n3)n2cc1S(=O)(=O)C(C)(C)C [Example 188, (S)-N-(3-(6-(tert-butylsulfonyl)-7-(3-hydroxy-2-methylpropoxy)imidazo [1,2-a]pyridin-3-yl)-1-methyl-1H-pyrazol-5-yl)-2-(2-chlorophenyl) acetamide]	100 to 500	≥ 80	< 10
C[C@H](CO)COc1cc2ncc(-c3cc(NC(=O)Cc4ccccc4Cl)n(C)n3)n2cc1S(=O)(=O)C(C)(C)C [Example 187, (R)-N-(3-(6-(tert-butylsulfonyl)-7-(3-hydroxy-2-methylpropoxy)imidazo [1,2-a]pyridin-3-yl)-1-methyl-1H-pyrazol-5-yl)-2-(2-chlorophenyl)acetamide]	100 to 500	≥ 80	< 10
COc1cc2ncc(-c3cc(C(=O)NCc4nc(C)no4)n(C)n3)n2cc1S(=O)(=O)C(C)(C)C [Example 78, 3-(6-(tert-butylsulfonyl)-7-methoxyimidazo[1,2-a]pyridin-3-yl)-1-methyl-N-((3-methyl-1,2,4-oxadiazol-5-yl)methyl)-1H-pyrazole-5-carboxamide]	> 2500	55 to 80	> 1000
C[C@@H](NC(=O)c1cc(-c2cnc3cc(OCCO)c(S(=O)(=O)C(C)(C)C)cn23)nn1C)c1ccccn1 [Example 109, (R)-3-(6-(tert-butylsulfonyl)-7-(2-hydroxyethoxy)imidazo[1,2-a]pyridin-3-yl)-1-methyl-N-(1-(pyridin-2-yl)ethyl)-1H-pyrazole-5-carboxamide]	100 to 500	≥ 80	10 to 100
COc1ccccc1CNC(=O)c1cc(-c2cnc3cc(OC)c(S(=O)(=O)C(C)(C)C)cn23)nn1C [Example 73, 3-(6-(tert-butylsulfonyl)-7-methoxyimidazo[1,2-a]pyridin-3-yl)-N-(2-methoxybenzyl)-1-methyl-1H-pyrazole-5-carboxamide]	500 to 2500	≥ 80	10 to 100
COc1cc2ncc(-c3cc(C(=O)NCc4ncccc4Cl)n(C)n3)n2cc1S(=O)(=O)C(C)(C)C [Example 71, 3-(6-(tert-butylsulfonyl)-7-methoxyimidazo[1,2-a]pyridin-3-yl)-N-((3-chloropyridin-2-yl)methyl)-1-methyl-1H-pyrazole-5-carboxamide]	500 to 2500	≥ 80	10 to 100
COc1cc2ncc(-c3cc(C(=O)N[C@H](C)c4ccc(F)cn4)n(C)n3)n2cc1S(=O)(=O)C(C)(C)C [Example 48, (R)-3-(6-(tert-butylsulfonyl)-7-methoxyimidazo[1,2-a]pyridin-3-yl)-N-(1-(5-fluoropyridin-2-yl)ethyl)-1-methyl-1H-pyrazole-5-carboxamide]	500 to 2500	≥ 80	10 to 100
